Values quoted from earlier work, collected in patent publication US20080095722A1, “Extended Surface Aggregates in the Treatment of Skin Conditions” (IDEA AG, priority 2004, published 2008).
Where two headings read alike, the source gives them in different places.

Experiments:
melanocytes = details: cell cultures, cited from earlier work
erythema = details: gel base or alcoholic solution; cited from earlier work

Row | SMILES | effect on melanocytes (melanocytes; low concentrations) | effect on melanocytes (melanocytes; very high concentrations) | inhibition of the appearance of erythema (erythema)
1 | CC(=O)Oc1ccccc1C(=O)O [acetylsalicylic acid] | stimulate melanocytes | may cause melanocyte apoptosis | 
2 | COc1ccc2c(c1)c(CC(=O)O)c(C)n2C(=O)c1ccc(Cl)cc1 [indomethacin] |  |  | some inhibition of the appearance of erythema
